For six compounds, mutagenic call results are on record in PubChem BioAssay AID1259407 (Chemical Carcinogenesis Research Information System (CCRIS), 2018).

The data set has as its system CCRIS mutagenicity, Ames/micronucleus/aberration tests. The experiment in a line: CCRIS mutagenicity studies.
[1] abbreviates: Test System: AMES SALMONELLA TYPHIMURIUM, Strain/Indicator: TA98, Metabolic Activation: NONE, Method: STANDARD PLATE.
The mark [2] stands for this setting: Test System: AMES SALMONELLA TYPHIMURIUM, Strain/Indicator: TA98, Metabolic Activation: RAT, LIVER, S-9, AROCLOR 1254, Method: STANDARD PLATE.
Where [3] appears, read: Test System: AMES SALMONELLA TYPHIMURIUM, Strain/Indicator: TA100, Metabolic Activation: NONE, Method: STANDARD PLATE.
[4] abbreviates: Test System: AMES SALMONELLA TYPHIMURIUM, Strain/Indicator: TA100, Metabolic Activation: RAT, LIVER, S-9, AROCLOR 1254, Method: STANDARD PLATE.
Where [5] appears, read: Test System: AMES SALMONELLA TYPHIMURIUM, Strain/Indicator: TA1537, Metabolic Activation: RAT, LIVER, S-9, AROCLOR 1254, Method: STANDARD PLATE.

Active and inactive are the calls of the source. How the calls were made is not given here.

Regarding `CCCCCCCCCCCCCCCCCC(=O)NCCNC(=O)CCCCCCCCCCCCCCCCC`, the mutagenic call by setting is: (Test System: AMES SALMONELLA TYPHIMURIUM, Strain/Indicator: TA98, Metabolic Activation: NONE, Method: PREINCUBATION) “inactive; negative”; (Test System: AMES SALMONELLA TYPHIMURIUM, Strain/Indicator: TA98, Metabolic Activation: RAT LIVER S-9, PHENOBARBITAL AND BETA-NAPHTHOFLAVONE, Method: PREINCUBATION) “inactive; negative”; (Test System: AMES SALMONELLA TYPHIMURIUM, Strain/Indicator: TA98, Metabolic Activation: RAT, LIVER, S-9, KC 500, Method: PREINCUBATION) “inactive; negative”; (Test System: AMES SALMONELLA TYPHIMURIUM, Strain/Indicator: TA100, Metabolic Activation: NONE, Method: PREINCUBATION) “inactive; negative”; (Test System: AMES SALMONELLA TYPHIMURIUM, Strain/Indicator: TA100, Metabolic Activation: RAT LIVER S-9, PHENOBARBITAL AND BETA-NAPHTHOFLAVONE, Method: PREINCUBATION) “inactive; negative”; (Test System: AMES SALMONELLA TYPHIMURIUM, Strain/Indicator: TA100, Metabolic Activation: RAT, LIVER, S-9, KC 500, Method: PREINCUBATION) “inactive; negative”. In addition, the mutagenic call is, setting by setting: (Test System: AMES SALMONELLA TYPHIMURIUM, Strain/Indicator: TA1535, Metabolic Activation: NONE, Method: PREINCUBATION) “inactive; negative”; (Test System: AMES SALMONELLA TYPHIMURIUM, Strain/Indicator: TA1535, Metabolic Activation: RAT LIVER S-9, PHENOBARBITAL AND BETA-NAPHTHOFLAVONE, Method: PREINCUBATION) “inactive; negative”; (Test System: AMES SALMONELLA TYPHIMURIUM, Strain/Indicator: TA1535, Metabolic Activation: RAT, LIVER, S-9, KC 500, Method: PREINCUBATION) “inactive; negative”; (Test System: AMES SALMONELLA TYPHIMURIUM, Strain/Indicator: TA1537, Metabolic Activation: NONE, Method: PREINCUBATION) “inactive; negative”; (Test System: AMES SALMONELLA TYPHIMURIUM, Strain/Indicator: TA1537, Metabolic Activation: RAT LIVER S-9, PHENOBARBITAL AND BETA-NAPHTHOFLAVONE, Method: PREINCUBATION) “inactive; negative”; (Test System: AMES SALMONELLA TYPHIMURIUM, Strain/Indicator: TA1537, Metabolic Activation: RAT, LIVER, S-9, KC 500, Method: PREINCUBATION) “inactive; negative”. Further, the mutagenic call reads like this: (Test System: AMES SALMONELLA TYPHIMURIUM, Strain/Indicator: TA1538, Metabolic Activation: NONE, Method: PREINCUBATION) “inactive; negative”; (Test System: AMES SALMONELLA TYPHIMURIUM, Strain/Indicator: TA1538, Metabolic Activation: RAT, LIVER, S-9, KC 500, Method: PREINCUBATION) “inactive; negative”; (Test System: E. COLI, Strain/Indicator: WP2 UVRA, Metabolic Activation: NONE, Method: PREINCUBATION) “inactive; negative”; (Test System: E. COLI, Strain/Indicator: WP2 UVRA, Metabolic Activation: RAT, LIVER, S-9, KC 500, Method: PREINCUBATION) “inactive; negative”; (Test System: E.COLI, Strain/Indicator: WP2UVRA/PKM101, Metabolic Activation: NONE, Method: PREINCUBATION) “inactive; negative”; (Test System: E.COLI, Strain/Indicator: WP2UVRA/PKM101, Metabolic Activation: RAT LIVER S-9, PHENOBARBITAL AND BETA-NAPHTHOFLAVONE, Method: PREINCUBATION) “inactive; negative”.
`CNC(=O)c1cccc2c(Nc3ccc(NS(C)(=O)=O)cc3OC)c3cccc(C)c3nc12`: the mutagenic call is, setting by setting: under setting [1], “inactive; negative”; under setting [2], “inactive; negative”; under setting [3], “inactive; negative”; under setting [4], “inactive; negative”; (Test System: AMES SALMONELLA TYPHIMURIUM, Strain/Indicator: TA102, Metabolic Activation: NONE, Method: STANDARD PLATE) “active; positive”; (Test System: AMES SALMONELLA TYPHIMURIUM, Strain/Indicator: TA102, Metabolic Activation: RAT, LIVER, S-9, AROCLOR 1254, Method: STANDARD PLATE) “active; positive”. Also, the mutagenic call (Test System: AMES SALMONELLA TYPHIMURIUM, Strain/Indicator: TA1537, Metabolic Activation: NONE, Method: STANDARD PLATE) is “active; positive”; the mutagenic call under setting [5] was “active; positive”; the mutagenic call (Test System: CHINESE HAMSTER V-79, Strain/Indicator: V-79/6-THIOGUANINE, Metabolic Activation: NONE, Method: STANDARD PLATE) was “active; positive”; the mutagenic call (Test System: CHINESE HAMSTER V-79, Strain/Indicator: V-79/OUABAIN, Metabolic Activation: NONE, Method: STANDARD PLATE) was “inactive; negative”.
Take `Cc1ccc(C(=O)O[C@@H](C(=O)O)[C@@H](OC(=O)c2ccc(C)cc2)C(=O)O)cc1` (tested in a mixture with another compound): the mutagenic call under setting [2] is “active; positive”, the mutagenic call under setting [3] is “inactive; negative”, the mutagenic call under setting [4] is “active; positive” and the mutagenic call under setting [5] is “active; positive”.
As for `O=[N+]([O-])C1=Cc2cccc3cccc1c23`, the mutagenic call under setting [1] is “active; positive”.
For the compound `O=C1O[C@@H]2[C@@H](O)CO[C@]2(O)[C@@]1(O)Cc1c[nH]c2ccccc12`, the mutagenic call under setting [1] is “inactive; negative”; the mutagenic call (Test System: AMES SALMONELLA TYPHIMURIUM, Strain/Indicator: TA98, Metabolic Activation: RAT, LIVER, S-9, PCB, Method: STANDARD PLATE) is “inactive; negative”; the mutagenic call under setting [3] was “inactive; negative”; the mutagenic call (Test System: AMES SALMONELLA TYPHIMURIUM, Strain/Indicator: TA100, Metabolic Activation: RAT, LIVER, S-9, PCB, Method: STANDARD PLATE) was “inactive; negative”.
As to `OC1C2OC2c2cccc3c2C1(O)c1ccccc1-3` (centres undefined), the mutagenic call is, setting by setting: (Test System: AMES SALMONELLA TYPHIMURIUM, Strain/Indicator: TM677, Metabolic Activation: NONE, Method: PREINCUBATION) “inactive; negative”; (Test System: AMES SALMONELLA TYPHIMURIUM, Strain/Indicator: TM677, Metabolic Activation: RAT, LIVER, POSTMITOCHONDRIAL SUPERNATANT, AROCLOR 1254, Method: PREINCUBATION) “inactive; negative”.
